Where two headings read alike, the source gives them in different places.
Assays:
[1] = target: T1, PIK3Cb_h (Homo sapiens, UniProt P42338); assay: Enzyme binding assay (KINOMEscan); conditions: Eurofins DiscoveRx
T1 construct: purchased Eurofins DiscoveRx Corporation
Method: Kinase enzyme binding affinities of compounds disclosed herein were determined using the KINOMEscan technology performed by Eurofins DiscoveRx Corporation, San Diego, California, USA (www.eurofinsdiscoveryservices.com). Table 2 reports the obtained PIK3β Kd values (nM) of, with the PIK3β Kd being the inhibitor binding constant. Table 3 reports the obtained Kd values (nM), with the Kd being the inhibitor binding constant: […]

[2] = tested on: phosphorylation of AKT in HCC70 cells; assay: Cellular assay: phosphorylation of AKT in HCC70 cells (western blotting); format: cell-based; conditions: Homo sapiens, HCC70, 1 h
Method: Cellular activity of PI3Kβ inhibitors was determined by quantifying the phosphorylation of AKT in HCC70 cells. AKT phosphorylated at Ser473 and Thr308 were measured using western blotting and specific primary antibodies from Cell Signaling (CST), Danvers, MA. On day 1, HCC70 cells (ATCC #CRL-2315) were seeded into Falcon 12-well cell Culture Plate (Corning #353043) at 100,000 cells per well, in 1 ml complete culture medium (RPMI-1640, GIBCO #11875093) containing 10% heat inactivated FBS (GIBCO #10438026), 1% Pen-Strep (GIBCO #15140122) and incubated at 37° AC, 5% CO2 overnight. On day 2, compound (500 nM) or DMSO (0.1%, Sigma Aldrich #8418) was added and cells were further incubated for 60 min at 37° AC, 5% CO2 in a total volume of 1 ml fresh medium.
At the end of the cell treatment period, media were removed by aspiration and adherent cells were lysed in 100 uL RIPA buffer (Sigma Aldrich #R0278). Equal volume (15 uL) of proteins was resolved by SDS-PAGE and transferred to PVDF (Millipore #IPFL00010) membrane for immunoblot analysis. Primary antibodies to the following proteins were used for immunoblotting: phosphor-AKT (Ser473) (CST #4060), phosphor-AKT (Thr308) (CST #2965), total AKT (CST #9272). Secondary goat anti-rabbit IgG fluorophore conjugated antibody (Invitrogen #A21109) was used to visualize the indicated proteins on an Odyssey CLx imaging system (Li-Cor). Quantification of band intensities was performed using Odyssey 3.0 software. Inhibition of Akt activity was calculated by band intensities using the formula: […]
Index was evaluated by % of AI. Data represent Index+(20˜60%), ++(60%˜80%), +++(80%˜90%), and ++++>90%.

[3] = HCC70 cells, compound 500 nM, 60 min, inhibition of Akt activity from band intensities, read-out: Index of AI (HCC70) p-AKT Thr 308
[4] = HCC70 cells, compound 500 nM, 60 min, inhibition of Akt activity from band intensities, read-out: Index of AI (HCC70) p-AKT ser 473
[5] = read-out: Index of AI (HCC70) p-AKT Thr 308
[6] = read-out: Index of AI (HCC70) p-AKT ser 473

T1 sequence (P42338 whole entry): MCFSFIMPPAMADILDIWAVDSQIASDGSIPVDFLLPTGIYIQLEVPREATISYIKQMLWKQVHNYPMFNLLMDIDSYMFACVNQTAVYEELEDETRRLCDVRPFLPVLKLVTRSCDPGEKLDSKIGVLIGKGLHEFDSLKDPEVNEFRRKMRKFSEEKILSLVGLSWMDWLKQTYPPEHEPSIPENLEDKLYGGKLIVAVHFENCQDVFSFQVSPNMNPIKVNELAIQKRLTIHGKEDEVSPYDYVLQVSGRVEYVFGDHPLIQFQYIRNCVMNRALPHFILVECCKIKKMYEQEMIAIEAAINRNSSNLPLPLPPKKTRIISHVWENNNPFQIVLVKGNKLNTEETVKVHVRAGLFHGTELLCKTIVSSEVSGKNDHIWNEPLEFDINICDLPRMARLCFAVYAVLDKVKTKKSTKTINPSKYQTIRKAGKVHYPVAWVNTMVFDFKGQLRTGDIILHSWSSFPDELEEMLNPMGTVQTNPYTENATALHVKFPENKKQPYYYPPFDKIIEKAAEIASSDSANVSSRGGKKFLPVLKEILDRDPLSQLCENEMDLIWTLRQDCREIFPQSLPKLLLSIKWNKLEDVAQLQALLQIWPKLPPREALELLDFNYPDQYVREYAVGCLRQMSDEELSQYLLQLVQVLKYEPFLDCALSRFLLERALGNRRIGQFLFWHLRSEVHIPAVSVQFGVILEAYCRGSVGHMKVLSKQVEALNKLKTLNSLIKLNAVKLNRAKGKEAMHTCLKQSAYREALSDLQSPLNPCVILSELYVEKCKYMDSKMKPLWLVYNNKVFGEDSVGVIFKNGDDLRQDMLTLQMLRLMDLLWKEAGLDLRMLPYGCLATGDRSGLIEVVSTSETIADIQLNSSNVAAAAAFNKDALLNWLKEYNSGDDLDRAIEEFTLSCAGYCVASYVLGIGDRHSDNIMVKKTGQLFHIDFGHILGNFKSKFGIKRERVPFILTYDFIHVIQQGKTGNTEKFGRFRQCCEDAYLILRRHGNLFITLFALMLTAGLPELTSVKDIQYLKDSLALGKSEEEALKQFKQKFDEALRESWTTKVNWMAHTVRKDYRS

With `CC(Nc1cc(F)cc(F)c1)c1cc(NC(=O)C2CCCC2)cc2c(=O)cc(N3CCOCC3)oc12` (centres unmarked) [Compound 12, N-(8-(1-((3,5-difluorophenyl)amino)ethyl)-2-morpholino-4-oxo-4H-chromen-6-yl)cyclopentanecarboxamide] the Kd [1] was 0.55 nM, the inhibition at 0.5 µM [2, 3] was greater than 90% and the inhibition at 0.5 µM [2, 4] was greater than 90%.
`CC(Nc1cc(F)cc(F)c1)c1cc(NS(C)(=O)=O)cc2c(=O)cc(N3CCOCC3)oc12` (centres unmarked) [Compound 13, N-(8-(1-((3,5-difluorophenyl)amino)ethyl)-2-morpholino-4-oxo-4H-chromen-6-yl)methanesulfonamide] showed a Kd [1] of 0.14 nM, an inhibition at 0.5 µM [2, 3] of 80 to 90% and an inhibition at 0.5 µM [2, 4] of 80 to 90%.
In the case of `CC(Nc1cc(F)cc(F)c1)c1cc(O)cc2c(=O)cc(N3CCOCC3)oc12` (centres unmarked) [Compound 15, 8-(1-((3,5-difluorophenyl)amino)ethyl)-6-hydroxy-2-morpholino-4H-chromen-4-one], the Kd [1] is reported as 0.059 nM, the inhibition at 0.5 µM [2, 3] is reported as greater than 90% and the inhibition at 0.5 µM [2, 4] is reported as greater than 90%.
For `CC(Nc1cc(F)cc(F)c1)c1cc(N)cc2c(=O)cc(N3CCOCC3)oc12` (centres unmarked) [Compound 19, 6-amino-8-(1-((3,5-difluorophenyl)amino)ethyl)-2-morpholino-4H-chromen-4-one], the Kd [1] was 0.067 nM, the inhibition at 0.5 µM [2, 3] was greater than 90% and the inhibition at 0.5 µM [2, 4] was greater than 90%.
For `COC(=O)Cc1cc(C(C)Nc2cc(F)cc(F)c2)c2oc(N3CCOCC3)cc(=O)c2c1` (centres unmarked) [Compound 25, methyl 2-(8-(1-((3,5-difluorophenyl)amino)ethyl)-2-morpholino-4-oxo-4H-chromen-6-yl)acetate], the Kd [1] was 0.21 nM, the inhibition at 0.5 µM [2, 3] was greater than 90% and the inhibition at 0.5 µM [2, 4] was greater than 90%.
Compound `CC(Nc1cc(F)cc(F)c1)c1cc(C(=O)N2CCC(N(C)C)C2)cc2c(=O)cc(N3CCOCC3)oc12` (centres unmarked) [Compound 27, 8-(1-((3,5-difluorophenyl)amino)ethyl)-6-(3-(dimethylamino)pyrrolidine-1-carbonyl)-2-morpholino-4H-chromen-4-one] has a Kd [1] of 0.28 nM, an inhibition at 0.5 µM [2, 3] greater than 90% and an inhibition at 0.5 µM [2, 4] greater than 90%.
In the case of `CC(Nc1cc(F)cc(F)c1)c1cc(C(=O)N2CC[C@@H](N(C)C)C2)cc2c(=O)cc(N3CCOCC3)oc12` (stereo partly drawn) [Compound 29, 8-(1-((3,5-difluorophenyl)amino)ethyl)-6-((R)-3-(dimethylamino)pyrrolidine-1-carbonyl)-2-morpholino-4H-chromen-4-one], the Kd [1] is reported as 0.17 nM, the inhibition at 0.5 µM [2, 3] is reported as greater than 90% and the inhibition at 0.5 µM [2, 4] is reported as greater than 90%.
Work on `CC(Nc1cc(F)cc(F)c1)c1cc(C(=O)N2CC[C@H](N(C)C)C2)cc2c(=O)cc(N3CCOCC3)oc12` (stereo partly drawn) [Compound 30, 8-(1-((3,5-difluorophenyl)amino)ethyl)-6-((S)-3-(dimethylamino)pyrrolidine-1-carbonyl)-2-morpholino-4H-chromen-4-one] yielded a Kd [1] of 0.32 nM, an inhibition at 0.5 µM [2, 3] of 80 to 90% and an inhibition at 0.5 µM [2, 4] of 80 to 90%.
With `CN(C)C(=O)c1cc(CN2CC(C)(C)c3c(F)cc(F)cc32)c2oc(N3CCOCC3)cc(=O)c2c1` [Compound 34, 8-((4,6-difluoro-3,3-dimethylindolin-1-yl)methyl)-N,N-dimethyl-2-morpholino-4-oxo-4H-chromene-6-carboxamide] the Kd [1] was 0.37 nM, the inhibition at 0.5 µM [2, 3] was 80 to 90% and the inhibition at 0.5 µM [2, 4] was 80 to 90%.
`CC1Cc2c(F)cc(F)cc2N1C(C)c1cc(C(=O)N(C)C)cc2c(=O)cc(N3CCOCC3)oc12` (centres unmarked) [Compound 38, 8-(1-(4,6-difluoro-2-methylindolin-1-yl)ethyl)-N,N-dimethyl-2-morpholino-4-oxo-4H-chromene-6-carboxamide] was tested, and the Kd [1] was 0.52 nM, the inhibition at 0.5 µM [2, 3] was greater than 90% and the inhibition at 0.5 µM [2, 4] was greater than 90%.
With `CC1(C#N)CN(C(=O)c2cc(CN3CCc4c(F)cc(F)cc43)c3oc(N4CCOCC4)cc(=O)c3c2)C1` [Compound 88, 1-(8-((4,6-difluoroindolin-1-yl)methyl)-2-morpholino-4-oxo-4H-chromene-6-carbonyl)-3-methylazetidine-3-carbonitrile] the inhibition at 0.5 µM [2, 3] was 60 to 80% and the inhibition at 0.5 µM [2, 4] was 60 to 80%.
In the case of `O=C(c1cc(CN2CCc3c(F)cc(F)cc32)c2oc(N3CCOCC3)cc(=O)c2c1)N1CC(O)C1` [Compound 89, 8-((4,6-difluoroindolin-1-yl)methyl)-6-(3-hydroxyazetidine-1-carbonyl)-2-morpholino-4H-chromen-4-one], the inhibition at 0.5 µM [2, 4] is reported as 20 to 60%.
For `CN(C)C(=O)c1cc(CN2CCc3c(F)cc(F)cc32)c2oc(N3CCO[C@H](CO)C3)cc(=O)c2c1` [Compound 92, (S)-8-((4,6-difluoroindolin-1-yl)methyl)-2-(2-(hydroxymethyl)morpholino)-N,N-dimethyl-4-oxo-4H-chromene-6-carboxamide], the inhibition at 0.5 µM [2, 5] was 60 to 80% and the inhibition at 0.5 µM [2, 6] was 60 to 80%.
Work on `CN(C)C(=O)c1cc(CN2CCc3c(F)cc(F)cc32)c2oc(N3CCO[C@H](CF)C3)cc(=O)c2c1` [Compound 93, (S)-8-((4,6-difluoroindolin-1-yl)methyl)-2-(2-(fluoromethyl)morpholino)-N,N-dimethyl-4-oxo-4H-chromene-6-carboxamide] yielded an inhibition at 0.5 µM [2, 3] of 80 to 90% and an inhibition at 0.5 µM [2, 4] of 80 to 90%.
Work on `CC(Nc1ccc(F)c(F)c1)c1cc(C(=O)N2CC[C@@H](N(C)C)C2)cn2c(=O)cc(N3CCOCC3)nc12` (stereo partly drawn) [Compound 94, 9-(1-((3,4-difluorophenyl)amino)ethyl)-7-((R)-3-(dimethylamino)pyrrolidine-1-carbonyl)-2-morpholino-4H-pyrido[1,2-a]pyrimidin-4-one] yielded an inhibition at 0.5 µM [2, 5] of 60 to 80% and an inhibition at 0.5 µM [2, 6] of 60 to 80%.
`CC(Nc1cccc(F)c1F)c1cc(C(=O)N2CC[C@@H](N(C)C)C2)cn2c(=O)cc(N3CCOCC3)nc12` (stereo partly drawn) [Compound 95, 9-(1-((2,3-difluorophenyl)amino)ethyl)-7-((R)-3-(dimethylamino)pyrrolidine-1-carbonyl)-2-morpholino-4H-pyrido[1,2-a]pyrimidin-4-one] showed an inhibition at 0.5 µM [2, 5] of 60 to 80% and an inhibition at 0.5 µM [2, 6] of 60 to 80%.
With `CC1Cc2c(F)cc(F)cc2N1C(C)c1cc(C(=O)N(C)C)cn2c(=O)cc(N3CCOCC3)nc12` (centres unmarked) [Compound 96, 9-(1-(4,6-difluoro-2-methylindolin-1-yl)ethyl)-N,N-dimethyl-2-morpholino-4-oxo-4H-pyrido[1,2-a]pyrimidine-7-carboxamide] the inhibition at 0.5 µM [2, 3] was greater than 90% and the inhibition at 0.5 µM [2, 4] was greater than 90%.
`CC(c1cc(C(=O)N2CC[C@@H](N(C)C)C2)cn2c(=O)cc(N3CCOCC3)nc12)N1CCc2cccc(Cl)c21` (stereo partly drawn) [Compound 97, 9-(1-(7-chloroindolin-1-yl)ethyl)-7-((R)-3-(dimethylamino)pyrrolidine-1-carbonyl)-2-morpholino-4H-pyrido[1,2-a]pyrimidin-4-one] gave an inhibition at 0.5 µM [2, 3] of 20 to 60% and an inhibition at 0.5 µM [2, 4] of 20 to 60%.
`CN(C)C(=O)c1cc(CN2CCc3c(F)cc(F)cc32)c2nc(N3CCOCC3)cc(=O)n2c1` [Compound 98, 9-((4,6-difluoroindolin-1-yl)methyl)-N,N-dimethyl-2-morpholino-4-oxo-4H-pyrido[1,2-a]pyrimidine-7-carboxamide] was tested, and the inhibition at 0.5 µM [2, 3] was 80 to 90% and the inhibition at 0.5 µM [2, 4] was 80 to 90%.
`CN(C)C(=O)c1cc(CN2CCc3c(F)ccc(F)c32)c2nc(N3CCOCC3)cc(=O)n2c1` [Compound 99, 9-((4,7-difluoroindolin-1-yl)methyl)-N,N-dimethyl-2-morpholino-4-oxo-4H-pyrido[1,2-a]pyrimidine-7-carboxamide] gave an inhibition at 0.5 µM [2, 3] of 80 to 90% and an inhibition at 0.5 µM [2, 4] of 80 to 90%.
`CN(C)C(=O)c1cc(CN2CCc3c(Cl)ccc(F)c32)c2nc(N3CCOCC3)cc(=O)n2c1` [Compound 100, 9-((4-chloro-7-fluoroindolin-1-yl)methyl)-N,N-dimethyl-2-morpholino-4-oxo-4H-pyrido[1,2-a]pyrimidine-7-carboxamide] showed an inhibition at 0.5 µM [2, 3] of 80 to 90% and an inhibition at 0.5 µM [2, 4] of 80 to 90%.
Compound `C[C@@H]1CN(c2cc(=O)n3cc(C(=O)N(C)C)cc(CN4CCc5c(F)cccc54)c3n2)CCO1` [Compound 101, (R)-9-((4-fluoroindolin-1-yl)methyl)-N,N-dimethyl-2-(2-methylmorpholino)-4-oxo-4H-pyrido[1,2-a]pyrimidine-7-carboxamide] has an inhibition at 0.5 µM [2, 3] greater than 90% and an inhibition at 0.5 µM [2, 4] greater than 90%.

— patent publication US20240166617A1, “PHOSPHOINOSITIDE 3 KINASE BETA INHIBITORS AND COMPOSITIONS AND METHODS THEREOF” (Geode Therapeutics Inc., priority 2021, published 2024)
